Experimental data as given in a melting point compilation (Tetko et al.; mined from patent text by program, amines drawn as free bases though some values may be those of a salt).

Structure (SMILES) | melting point
CSCc1c(C(=O)NN2CCCCC2)nn(-c2ccc(Cl)cc2Cl)c1-c1ccc(Cl)cc1 | 183 °C
CC(=O)OCCC1CCC2C3CCC4CCCCC4(C)C3CCC12C (configuration not stated) | 123 to 125 °C
CC(C)(C)CCCOC1CCC2C3C(=O)C=C4CC(O[Si](C)(C)C(C)(C)C)CCC4(C)C3CCC12C (configuration not stated) | 155 to 156 °C
CC(CC(C#N)(c1ccccc1)c1ccccn1)N1CCN(C)CC1 (configuration not stated) | 89 to 90 °C
CC(C)(C)OC(=O)N(O)C(=O)CCN | 85 to 87 °C
O=c1cc2c(nn1-c1ccc(Cl)cc1)-c1ccccc1S(=O)(=O)CC2 | > 310 °C
c1cncc(C2CCc3ccccc3O2)c1 (configuration not stated) | 59 to 60 °C
CC(=O)c1cccc(NC(=O)c2cc(C(=O)Nc3cccc(C(C)=O)c3)cc(C(=O)Nc3cccc(C(C)=O)c3)c2)c1 | 270 °C
Cc1oc(-c2ccccc2)nc1COc1ccc(Cn2cc(/C=C/C(=O)O)c(-c3ccccc3)c2)cc1 | 154 to 155 °C
Oc1ccc2c(c1)CCCC(c1ccccc1)=C2c1ccc(OCCCCCSCCCCF)cc1 | 163 °C
CC(C)n1nc(-c2ncc(N)nc2-c2ccccc2Br)ccc1=O | 189 to 191 °C
COC(CNC(=O)CCl)OC | 33 to 36 °C
Cc1ccc(S(=O)(=O)OCC(C)(O)C(=O)c2ccccc2)cc1 (configuration not stated) | 88 to 90 °C
O=C(O)C1CC2CCCCC2CN1C(S)c1nn[nH]n1 (configuration not stated) | 165 to 172 °C
COCC(O)Cc1ccc(-c2ccc3cc(C(=O)O)ccc3c2)cc1C12CC3CC(CC(C3)C1)C2 (configuration not stated) | 240 to 242 °C
CCC(CC)C(=O)N1CC(NC(=O)Nc2cccc(C(=O)O)c2)C(=O)N(CC(=O)c2ccccc2C)c2cc(C)ccc21 (configuration not stated) | 244 to 246 °C
O=S(=O)(OC(c1cccc(C(OS(=O)(=O)c2ccc(Cl)cc2)(C(F)(F)F)C(F)(F)F)c1)(C(F)(F)F)C(F)(F)F)c1ccc(Cl)cc1 | 125 °C
CN(C(=O)Nc1c(F)cc(F)cc1CCc1cc(C(C)(C)C)c(O)c(C(C)(C)C)c1)C1CCN(Cc2ccccc2)CC1 | 187 to 191 °C
CSc1ccc2ccc(N3C(=O)c4ccccc4C3=O)nc2n1 | 235 °C
CC(C)(C)CCNC(=O)c1ccc(CC(C)(C)C)cc1 | 124 to 126 °C
Cc1noc(NS(=O)(=O)c2ccsc2C(=O)c2ccc3c(c2)OCO3)c1Br | 47 to 49 °C

Structure (SMILES) | melting point
CCCOC(=O)c1ccc(C(=O)NNC(=O)c2ccc(C(=O)OCCC)cc2)cc1 | 173 to 175 °C
CC(=O)NC[C@H]1CN(c2ccc3c(c2)CCC(C)N3C(=O)OCc2ccccc2)C(=O)O1 (some centres not stated) | 126 to 129 °C
Cc1c(-c2ccc3oc(=O)n(C)c3c2)nc2c(O)cccn12 | > 280 °C
CC(C)(O)C1CCC(CNC(=O)c2cccnc2Oc2cccc(C#N)c2)CC1 (configuration not stated) | 129 to 130 °C
O=C(O)c1cc(O)c(-c2ccccc2)c([N+](=O)[O-])c1 | 213 to 215 °C
CC(=O)c1cc(CC(=O)O)cc2c1NC(C(F)(F)F)CC2 (configuration not stated) | 173 to 174 °C
COc1ccc2c(c1)CCC1C2=CCC2(C)C(O)CCC12 (configuration not stated) | 95 to 97 °C
Nc1cc(-c2ccccc2)nn1-c1c(Cl)cc(C(F)(F)F)cc1Cl | 142 °C
COc1ccc(-c2cncc(OC3SCC(O)C(O)C3O)c2)cc1Cl (configuration not stated) | 165 °C
CCOC(=O)CCC(NC(=O)c1ccc(NC2CCc3cc4nc(C)n(COC(=O)C(C)(C)C)c(=O)c4cc32)cc1)C(=O)OCC (mixture of isomers) | 156 °C
O=C1Nc2ccc(F)cc2C(C#CC2CC2)(C(F)(F)F)N1 (racemic) | 155 °C
Cc1nc(NCCCO)c([N+](=O)[O-])c(N2CCc3ccccc3CC2)n1 | 104 to 108 °C
CP(C)(=O)CN1CCC(Oc2c(F)c(F)c(F)c(F)c2F)CC1 | 120 to 123 °C
COC(=O)C(=CO)c1ccccc1 | 33.5 to 35.5 °C
O=C(CCCN1CCCC1)NC(Cc1c[nH]c2ccccc12)C(=O)CCc1cc(C(F)(F)F)cc(C(F)(F)F)c1 (configuration not stated) | 99 to 100 °C
CS(=O)(=O)c1ccc(-c2nn3c(-c4ccccc4)coc3c2-c2ccc(F)cc2)cc1 | 151 to 154 °C
CCCN(C1=C(O)CC(CCc2ccc(O)cc2)(C2CCCC2)OC1=O)c1ccccc1 (configuration not stated) | 95 °C
O=C1c2ccccc2C(Nc2ccc(Cl)cc2)N1CCCN1CC=C(c2ccccc2)CC1 (configuration not stated) | 188 °C
Cc1c(NC(=O)c2ccc(C(C)(C)C)cc2)nc2ccc(-n3ccnc3)nn12 | 302 to 303 °C
COc1ccccc1N1CCN(C(=O)[C@H](N)Cc2cccnc2)CC1 | > 240 °C
CSCC[C@@H](NC(=O)OC(C)(C)C)C(=O)Nc1ccc(N2C[C@H](CNC(=O)c3ccc(Cl)s3)OC2=O)cc1 | 183 °C

Structure (SMILES) | melting point
Cc1c(F)c([N+](=O)[O-])cc2c(=O)c(C(=O)O)cn(-c3cc(N)c(F)cc3F)c12 | 250 to 252 °C
O=C1C(c2ccccc2)=C(c2cccs2)C(=O)N1c1ccc(Cl)cc1 | 176 to 177 °C
N#CCC(=O)Nc1ccc(-n2nc(C(F)(F)F)cc2C(F)(F)F)cc1 | 140 to 143 °C
Cc1onc(-c2ccccc2)c1-c1[nH]c2ccccc2c1CCN(C)C | 142 to 144 °C
CS(=O)(=O)Oc1ccc(C=O)cc1 | 61 to 63 °C
Cc1nc2ccccc2n1Cc1ccc(-n2c(C)nc3cnccc32)cc1 | 184 to 185 °C
CCCCCCCCCCCCCCCCCCOc1ccc([N+](=O)[O-])cc1[N+](=O)[O-] | 63.5 to 64 °C
Cc1nnc(C=Cc2ccccc2O)s1 | 253 to 254 °C
CC1CC(=O)N(c2cc(C(C)(C)C)c(O)c(C(C)(C)C)c2)C1 (configuration not stated) | 157 to 159 °C
C=C1NC(=O)N(CCCC)C1=O | 73 °C
O=C(O)C1CCN(Cc2ccccc2)CC1 | 167 to 168 °C
O=C(c1ccccc1)c1sc2cc(O)ccc2c1-c1ccccc1 | 187 to 190 °C
CC(=O)NCCNC(=O)c1ccccn1 | 96 to 99 °C
COCn1ncc2cc(-c3nnc(SCc4cccc(C(F)(F)F)c4)o3)ccc21 | 159 to 160 °C
CC(C)(C)OC(=O)N1CCN(CC(=O)O)CC1 | 195 to 197 °C
CC(C)(C)OC(=O)N=C(NC(=O)OC(C)(C)C)Nc1ccc2c(c1)Cc1cc(NC(=NC(=O)OC(C)(C)C)NC(=O)OC(C)(C)C)ccc1-2 | > 340 °C
O=C(O)CC(NC(=O)OCC1c2ccccc2-c2ccccc21)C(F)(F)F (configuration not stated) | 187 to 189 °C
N#Cc1ccc(Cn2cncc2CCCO)cc1 | 121 to 123 °C
COc1ccc(C(=O)c2sccc2OC2OC(COC(C)=O)C(OC(C)=O)C(OC(C)=O)C2OC(C)=O)cc1 (configuration not stated) | 149 to 151 °C

Other lines, results leading:

melting point | Structure (SMILES)
165 to 169 °C | CC(CO)Oc1cc(Oc2ccc(S(C)(=O)=O)cc2)cc2cc(C3=NCC(CCO)S3)[nH]c12 (configuration not stated)
157 to 159 °C | CC(=O)OCCOCc1nc2nccnc2c(=O)[nH]1
183 to 185 °C | CCC(CC)Nc1n[nH]c(=O)c2c1ccn2-c1c(C)cc(C)cc1C
203 to 204 °C | COc1cc(OC)nc(C2(O)OC(=O)c3c2ccnc3C)n1 (configuration not stated)
178 °C | COc1ccc2cccc(N3C(=O)CN(Cc4ccccc4)CC3=O)c2c1
152 °C | COc1cc(-c2nc3ccc(OCC(C)N(C)C)cc3n2Cc2ccccc2Br)cc(OC)c1OC (configuration not stated)
86 to 88 °C | CCOC(=O)C=Cc1cc([N+](=O)[O-])c(F)cc1Cl
140 °C | CCOc1ccc2c(c1)n(C1CCCC1)c(=O)n2Cc1ccc(NC(=O)N(CC)CC)cc1OC
75 to 76.5 °C | CCOC(=O)C(C)(C(=O)OCC)C(=O)c1cc([N+](=O)[O-])cc(Br)c1Cl
173 °C | COC(=O)Cc1cc(C(=O)c2ccc(F)cc2)ccc1O
220 to 221 °C | COc1cc(OC)c2cc(-c3ccc(C#N)cc3)oc2c1
105 to 107 °C | Cc1cc(C)c2c(n1)N(CCN(C)C)C(=O)N(C)C2
220 °C | COc1cc(Cc2cnc(N)nc2N)cc(OC)c1-n1cccc1
107 to 109 °C | COc1ccc(NC(=O)c2ccccc2-c2cccc(OC)c2)cc1
58 to 59 °C | CCOCc1cc2cc(Cl)ccc2oc1=Nc1ccccc1
194 to 195 °C | CCOCc1nc2c(N)nc3cc(-c4ccccc4)ccc3c2n1CC1CCN(C(=O)OC(C)(C)C)CC1
167 to 168 °C | CCC(=O)/C=C/c1cn(-c2ccccc2)nc1OCc1ccc(OCc2nc(-c3ccco3)oc2C)c(OC)c1
183 to 184 °C | CC(C)(Sc1nc(N)cc(Cl)n1)c1ccccn1

melting point | Structure (SMILES)
78 to 80 °C | CCCCCC(=O)c1ccc(OCc2ccc3ccccc3n2)cc1
145 to 147 °C | N#Cc1c(F)ccc(OCc2nc3cc(Cl)ccc3s2)c1F
82 to 83 °C | C=C(CC(Cl)(Cl)Cl)c1cc(Cl)nc(Cl)c1
150 to 152 °C | CCS(=O)(=O)Cc1c(Cl)c(Cl)cc2nc(OC)c(OC)nc12
179 to 182 °C | O=C(O)Cc1c(C(=O)c2ccc(Cl)c(F)c2)[nH]c2cc(Cl)ccc12
> 250 °C | CCN(CC)c1cc(C)c2ncc(C#N)c(O)c2c1
93 to 94 °C | CCOC(=O)c1cccc(C)c1S(N)(=O)=O
211 to 212 °C | Cc1nc(-c2ccc(Cl)cc2)c(CCC(=O)O)o1
163 to 165 °C | COC(=O)c1nn(S(=O)(=O)c2ccc(C)cc2)c2ccccc12
83 to 84 °C | COc1ccc(-c2oncc2CO)cc1OC
154 to 156 °C | C=CC(=O)OC(C#N)Cc1ccc(OC)c(OC)c1 (configuration not stated)
224 to 226 °C | CCc1cc2c(O)c(C#N)c(=O)oc2cc1C
127 to 128 °C | COc1ccc(-c2ncn(C3CCCCO3)c2-c2ccc(OC)cc2)cc1 (configuration not stated)
121 to 123 °C | COC(=O)C(Cc1cc(Br)c(S(=O)(=O)c2ccc(OC)c(C(C)C)c2)c(Br)c1)C(=O)OC
83 °C | CCOC(=O)C(Cc1cc(Oc2c(Cl)cc(C(F)(F)F)cc2Cl)ccc1SC(F)(F)F)C(=O)OCC
212 to 214 °C | C=CCNC(=O)c1c(O)c2ccc(Cl)cc2n(C)c1=N
172 °C | CCCCOC(=O)CSc1ncnc2c(O)n(C)nc12
218 to 221 °C | CC(C)c1ccc(C(=O)N(C(=N)N)C(=O)c2ccc(C(C)C)c(S(C)(=O)=O)c2)cc1S(C)(=O)=O
